Test results taken from patent US9029593B2, “Method for manufacturing spilanthol and intermediate manufacturing product therefor” (Takasago International Corporation, priority 2009, dated 2015).
Entries after “also recorded” stand apart in the source; their conditions may differ.

What was measured:
[1] = Sensory evaluation of aqueous solutions containing 10 ppm of N-isobutyl-2,6,8-decatrienamide; format: in vivo; conditions: aqueous solution containing 10 ppm
Description: The sensory evaluation was performed using aqueous solutions respectively containing 10 ppm of N-isobutyl-2,6,8-decatrienamide obtained in Example 2 and Comparative Example 1.

[2] = Thermal stability evaluation of crude product at 180° C. (GC, hexadecane internal standard); format: physicochemical; conditions: crude product before distillation, stirring at 180° C. in a stream of nitrogen, after 3 hours, GC area ratio vs hexadecane
Description: The crude product of N-isobutyl-2,6,8-decatrienamide obtained in Example 2 before the distillation and the crude product obtained in Comparative Example 1 were compared as follows in terms of thermal stability at 180° C. assuming distillation at high temperature.
In a stream of nitrogen, 1 g of each of the crude products was put into a flask together with 0.1 g of hexadecane as an internal standard substance, followed by stirring at 180° C. for […]. By gas chromatography, the area ratio of N-isobutyl-2,6,8-decatrienamide was compared with the area ratio of the internal standard substance to measure the remaining percentage of N-isobutyl-2,6,8-decatrienamide.

remaining percentage of N-isobutyl-2,6,8-decatrienamide [2] | SMILES | Sensory evaluation (numbing and astringent actions) [1]
98% | CC=CC=CCC/C=C/C(=O)NCC(C)C (racemic) [Example 2, N-isobutyl-2,6,8-decatrienamide] | excellent numbing and astringent actions; also recorded: clear and strong
89% | CC=CC=CCCC=CC(=O)NCC(C)C [Comparative Example 1, N-isobutyl-2,6,8-decatrienamide, reference compound] | 
